From US20160220569A1, “CDK4/6 Inhibitor Dosage Formulations For The Protection Of Hematopoietic Stem And Progenitor Cells During Chemotherapy” (G1 Therapeutics, Inc., priority 2015, published 2016)
Like-named read-outs stand apart in the source and are kept apart here.

Assay: Single escalating dose IV infusion pharmacokinetics in healthy volunteers (noncompartmental)
Type: in vivo, human
Settings: human, plasma; for concentration at 24.5 h: read-out: concentration at 24.5 hours after the start of infusion; for concentration at 12.5 h: Time 12.50 h
Method: Forty-five subjects have enrolled in the study.
Analysis of plasma concentration versus time data for calculation of standard pharmacokinetic (PK) parameters following intravenous infusion administration was conducted using Phoenix WinNonlin version 6.3 using a nominal infusion duration and scheduled blood sampling times. Random subject numbers were assigned by the bioanalytical laboratory to retain the blind.
(§1) Analysis of plasma concentration versus time data for calculation of standard pharmacokinetic (PK) parameters following intravenous infusion administration was conducted using Phoenix WinNonlin version 6.3 using a nominal infusion duration and scheduled blood sampling times.
as §1

[1] = both sexes, iv, 48 mg/m2, Cohort 4, 48 mg/m^2 IV, r6-8=Subjects 1-3,r10=Mean,r12=Min,r13=Median,r14=Max,r16=Geometric Mean
[2] = both sexes, iv, 48 mg/m^2, Compound 1 Concentration, Cohort 4, 48 mg/m^2 IV, r7-9=Subjects 1-3,r11=Mean,r13=Min,r14=Median,r15=Max,r17=Geometric Mean
[3] = both sexes, iv, 96 mg/m^2, Cohort 5, 96 mg/m^2, 30-minute IV infusion, noncompartmental, subjects 1-6, Mean, Min, Median, Max, Geometric Mean
[4] = both sexes, iv, 96 mg/m^2, Compound 1 Concentration, Cohort 5, 96 mg/m^2 IV, r7-12=Subjects 1-6,r14=Mean,r16=Min,r17=Median,r18=Max,r20=Geometric Mean

SMILES: CN1CCN(c2ccc(Nc3ncc4cc5n(c4n3)C3(CCCCC3)CNC5=O)nc2)CC1 [Compound 1, 2′-((5-(4-methylpiperazin-1-yl)pyridin-2-yl)amino)-7′,8′-dihydro-6′H-spiro[cyclohexane-1,9′-pyrazino[1′,2′:1,5]pyrrolo[2,3-d]pyrimidin]-6′-one]
- Cmax (both sexes, iv, 48 mg/m2, Cohort 4, 48 mg/m^2 IV, mean, read-out: Cmax averaged): 224 ng/mL
- Tmax (both sexes, iv, 48 mg/m2, Cohort 4, 48 mg/m^2 IV, median, read-out: median Tmax): 0.5 h
- AUC(0-t) [1]: 453 ng·h/mL
- MRT inf [1]: 8.08 h
- AUC(0-inf) (both sexes, iv, 48 mg/m2, Cohort 4, 48 mg/m^2 IV, r6-8=Subjects 1-3,r10=Mean,r12=Min,r13=Median,r14=Max,r16=Geometric Mean, read-out: AUCinf): 499 ng·h/mL
- Cmax (both sexes, iv, 48 mg/m2, Cohort 4, 48 mg/m^2 IV, r6-8=Subjects 1-3,r10=Mean,r12=Min,r13=Median,r14=Max,r16=Geometric Mean, read-out: Cmax): 224 ng/mL
- Tmax (both sexes, iv, 48 mg/m2, Cohort 4, 48 mg/m^2 IV, r6-8=Subjects 1-3,r10=Mean,r12=Min,r13=Median,r14=Max,r16=Geometric Mean, read-out: Tmax): 0.417 h
- half-life (both sexes, iv, 48 mg/m2, Cohort 4, 48 mg/m^2 IV, range over subjects, read-out: Half-lives range): 7.24 to 10.9 h
- concentration at 72 h (both sexes, iv, 48 mg/m^2, Cohort 4, 48 mg/m^2 IV, one subject measurable, read-out: concentration at 72 hours after the EOI): 0.76 ng/mL
- concentration at 24.5 h (both sexes, iv, 48 mg/m^2, Cohort 4, 48 mg/m^2 IV, range over 3 subjects): 2.08 to 4.66 ng/mL
- concentration at 0.25 h [2]: 192 ng/mL
- concentration at 0.75 h (both sexes, iv, 48 mg/m^2, Compound 1 Concentration, Cohort 4, 48 mg/m^2 IV, Time 0.75 h, r7-9=Subjects 1-3,r11=Mean,r13=Min,r14=Median,r15=Max,r17=Geometric Mean): 107 ng/mL
- concentration at 1 h (both sexes, iv, 48 mg/m^2, Compound 1 Concentration, Cohort 4, 48 mg/m^2 IV, Time 1.00 h, r7-9=Subjects 1-3,r11=Mean,r13=Min,r14=Median,r15=Max,r17=Geometric Mean): 81.9 ng/mL
- concentration at 2.5 h (both sexes, iv, 48 mg/m^2, Compound 1 Concentration, Cohort 4, 48 mg/m^2 IV, Time 2.50 h, r7-9=Subjects 1-3,r11=Mean,r13=Min,r14=Median,r15=Max,r17=Geometric Mean): 34.2 ng/mL
- concentration at 3.5 h (both sexes, iv, 48 mg/m^2, Compound 1 Concentration, Cohort 4, 48 mg/m^2 IV, Time 3.50 h, r7-9=Subjects 1-3,r11=Mean,r13=Min,r14=Median,r15=Max,r17=Geometric Mean): 27.6 ng/mL
- concentration at 6.5 h (both sexes, iv, 48 mg/m^2, Compound 1 Concentration, Cohort 4, 48 mg/m^2 IV, Time 6.50 h, r7-9=Subjects 1-3,r11=Mean,r13=Min,r14=Median,r15=Max,r17=Geometric Mean): 17 ng/mL
- concentration at 8.5 h (both sexes, iv, 48 mg/m^2, Compound 1 Concentration, Cohort 4, 48 mg/m^2 IV, Time 8.50 h, r7-9=Subjects 1-3,r11=Mean,r13=Min,r14=Median,r15=Max,r17=Geometric Mean): 12.1 ng/mL
- concentration at 12.5 h [2]: 8.36 ng/mL
- AUC(0-inf) (both sexes, iv, 96 mg/m2, Cohort 5, 96 mg/m^2 IV, mean, read-out: AUCinf averaged): 1320 ng·h/mL
- Cmax (both sexes, iv, 96 mg/m2, Cohort 5, 96 mg/m^2 IV, mean, read-out: Cmax averaged): 900 ng/mL
- half-life (both sexes, iv, 96 mg/m2, Cohort 5, 96 mg/m^2 IV, mean, read-out: Half-lives averaged (converted)): 8.62 h
- Tmax (both sexes, iv, 96 mg/m2, Cohort 5, 96 mg/m^2 IV, median, read-out: median Tmax): 0.375 h
- half-life (both sexes, iv, 96 mg/m2, Cohort 5, 96 mg/m^2 IV, range over subjects, read-out: Half-lives range): 6.97 to 10.9 h
- AUC(0-t) [3]: 1530 ng·h/mL
- MRT inf [3]: 4.36 h
- AUC(0-inf) (both sexes, iv, 96 mg/m^2, Cohort 5, 96 mg/m^2, 30-minute IV infusion, noncompartmental, subjects 1-6, Mean, Min, Median, Max, Geometric Mean, read-out: AUCinf): 1590 ng·h/mL
- Cmax (both sexes, iv, 96 mg/m^2, Cohort 5, 96 mg/m^2, 30-minute IV infusion, noncompartmental, subjects 1-6, Mean, Min, Median, Max, Geometric Mean, read-out: Cmax): 949 ng/mL
- Tmax (both sexes, iv, 96 mg/m^2, Cohort 5, 96 mg/m^2, 30-minute IV infusion, noncompartmental, subjects 1-6, Mean, Min, Median, Max, Geometric Mean, read-out: Tmax): 0.5 h
- half-life (both sexes, iv, 96 mg/m^2, Cohort 5, 96 mg/m^2, 30-minute IV infusion, noncompartmental, subjects 1-6, Mean, Min, Median, Max, Geometric Mean, read-out: t½ (converted)): 7.11 h
- concentration at 24.5 h (both sexes, iv, 96 mg/m^2, Cohort 5, 96 mg/m^2 IV, range over subjects): 3.96 to 9.59 ng/mL
- concentration at 0.25 h [4]: 843 ng/mL
- concentration at 0.5 h (both sexes, iv, 96 mg/m^2, Compound 1 Concentration, Cohort 5, 96 mg/m^2 IV, Time 0.50 h, r7-12=Subjects 1-6,r14=Mean,r16=Min,r17=Median,r18=Max,r20=Geometric Mean): 992 ng/mL
- concentration at 12.5 h [4]: 11.9 ng/mL
- Tmax (both, intravenous, […]2, Cohort 6, […]^2, 0-24.5 hr data, noncompartmental, subjects 1-6, Mean, Min, Median, Max, Geometric Mean, read-out: Tmax): 0.5 h
- Tmax (both, intravenous, […]2, Cohort 6, […]^2, 0-[…] data, noncompartmental, subjects 1-6, Mean, Min, Median, Max, Geometric Mean, read-out: Tmax): 0.5 h
- half-life (both, intravenous, […]2, Cohort 7, […]^2, N = 12, Geo. Mean, read-out: t1/2 (converted)): 14.5 h
- Tmax (both, intravenous, […]2, Cohort 7, […]^2, N = 12, Geo. Mean, read-out: tmax): 0.36 h
- half-life (both, intravenous, […]2, Cohort 7, […]^2, N = 12, min-max, read-out: t1/2 (converted)): 11.9 to 17.3 h
- Tmax (both, intravenous, […]2, Cohort 7, […]^2, N = 12, min-max, read-out: tmax): 0.25 to 0.48 h
- half-life (both, intravenous, […]^2, Cohort 6 + 7, […]^2, N = 18, Geo. Mean, read-out: t1/2 (converted)): 14.5 h
- Tmax (both, intravenous, […]^2, Cohort 6 + 7, […]^2, N = 18, Geo. Mean, read-out: tmax): 0.37 h
- half-life (both, intravenous, […]^2, Cohort 6 + 7, […]^2, N = 18, min-max, read-out: t1/2 (converted)): 11.9 to 17.3 h
- Tmax (both, intravenous, […]^2, Cohort 6 + 7, […]^2, N = 18, min-max, read-out: tmax): 0.25 to 0.48 h
- half-life (both, iv, […]2, Cohort 6, […]^2 IV, 0-24.5 hr data, mean, read-out: Half-lives averaged (converted)): 7.87 h
- half-life (both, iv, […]2, Cohort 6, […]^2 IV, 0-24.5 hr data, range over subjects, read-out: Half-lives range): 5.78 to 8.79 h
- half-life (both, iv, […]2, Cohort 6, […]^2 IV, 0-[…] data, mean, read-out: Half-lives averaging (converted)): 18 h
- half-life (both, iv, […]2, Cohort 6, […]^2 IV, 0-[…] data, range over subjects, read-out: Half-lives range): 16.9 to 20.1 h
- Tmax (both, iv, […]2, Cohort 6, […]^2 IV, median, read-out: median Tmax): 0.5 h
